According to patent US4118506A, “Pharmaceutical compositions containing 1,3-dithiol-2-ylidene malonate derivatives” (Nihon Nohyaku Co., Ltd., priority 1976, dated 1978):

What was measured:
[1] = test system: acute liver damage induced by D-galactosamine; experiment: protective effect on acute hepatitis with mesenchymal reaction and discrete lobular necrosis, D-galactosamine model; type: in vivo, rat (SD strain); conditions: 250 mg/kg oral 6 h before D-galactosamine i.p.
Method: D-Galactosamine is a compound which induces a discrete lobular necrosis associated with mesenchymal reaction similar to the change observed in human viral hepatitis, so that it is frequently used in producing a model for viral hepatitis.
The compound of this invention or anethol trithion was administered orally to the male rat (SD strain) at the dose of 250 mg/kg. Six hours after it, D-galactosamine was intraperitoneally administered at the dose of 600 mg/kg. Four hours after it, an additional 300 mg/kg was administered intraperitoneally. Eight hours after it, the animals were sacrificed to collect the blood samples. P-GPT activity and triglyceride in the liver were measured to evaluate the effect of the compound of this invention.

[2] = test system: fatty liver induced by ethionine; experiment: effect on fatty liver, ethionine model; type: in vivo, mouse (dd-strain); conditions: 250 mg/kg oral
Text: There are known many factors inducing fatty liver. But, the fatty liver is grouped into a couple of patterns from the mechanism of lipid accumulation or metabolism of lipoprotein in the liver. Ethionine is a typical example which induces first pattern of fatty liver. It inhibits RNA and protein synthesis and destroys polysome of the liver cell. Fatty liver is induced by inhibition of the protein synthesis and disturbance of lipoprotein secretion.
Usually, fatty liver is closely related to the accumulation of triglyceride in the liver. In the present example, the degree of fatty liver and protective or therapeutic effect on the fatty liver was evaluated by measurement of triglyceride content in the liver.
The compounds of this invention and methionine were independently dissolved or suspended into olive oil and administered orally to the male mouse (4 week-old dd-strain) at the dose of 250 mg/kg. One hour before it, simultaneously with it or one hour after it, ethionine dissolved in equimolar NaOH solution was administered intraperitoneally at the dose of 200 mg/kg. Twenty four hours after the administration of ethionine, the animals were sacrificed and triglyceride content in the liver was determined by chromotropic acid method.

[3] = test system: fatty liver induced by carbon tetrachloride; experiment: therapeutic effect on fatty liver, carbon tetrachloride model; type: in vivo, rat (SD strain)
Method: Carbon tetrachloride also induces fatty liver, but the picture of disease differs from the case of ethionine-induced fatty liver. Carbon tetrachloride is generally considered to damage microsome and thereby to inhibit protein synthesis and induce fatty liver.
Carbon tetrachloride was subcutaneously administered to 36 week-old male rats (SD strain) for 4 days at the dose of 1 ml/kg. The treated animals were left for 3 days after the last administration to maximize the manifestation of fatty liver.
Administration of Compound 4 was commenced on the fourth day after the administration of carbon tetrachloride was completed. It was orally given everyday for 10 days at the dose of 50 or 250 mg/kg. On the 11th day, the animals were sacrificed by exsanguination. The therapeutic effect was evaluated by determining the content of lipid in the liver (triglyceride and total lipid) and examining the histopathological changes. Triglyceride and total lipid were determined colorimetrically by chromotropic acid method and Bragdon's oxidation method, respectively.
Indices for the histopathological change is as follows: […]

[4] = test system: acute liver damage induced by dimethylnitrosamine; experiment: protective effect on acute liver damage associated with centrilobular necrosis, dimethylnitrosamine model; type: in vivo, mouse (dd); conditions: dimethylnitrosamine 0.05 ml/kg i.p.; 100 mg/kg oral 6 h before; 15 h after
Method: (§1) Bromobenzene (hereinafter abbreviated as BB), Dimethylnitrosamine (hereinafter abbreviated as DMN) and chloroform (hereinafter abbreviated as CF) resemble carbon tetrachloride in inducing liver damage associated with centrilobular necrosis.
(§2) Test compound or anethol trithion was orally administered to animal at the dose of 100 mg/kg. Twenty four hours after it (in the case of dimethylnitrosamine, exceptionally fifteen hours after it) the animals were sacrificed and blood samples were collected. Indices of hepatotoxicity adoptable in each chemical were measured, from which the efficacy of the compound was evaluated.
DMN male mouse 0.05 intraper-

[5] = test system: acute liver damage induced by bromobenzene; experiment: protective effect on acute liver damage associated with centrilobular necrosis, bromobenzene model; type: in vivo, rat (SD)
Method: as §1, §2
BB male rat 0.75 oral p-GPT activity

[6] = test system: acute liver damage induced by carbon tetrachloride; experiment: protective effect on acute liver damage associated with centrilobular necrosis, carbon tetrachloride model; type: in vivo, mouse (dd strain); conditions: 250 mg/kg oral 6 h before CCl4, 24 h after CCl4
Text: Carbon tetrachloride (CCl4) administration induces centrilobular necrosis of the liver associated with loss of diphosphopyridine nucleotide, hepatic glycogen, coenzyme A and increase in neutral fat. Release of several enzymes from the hepatocytes, and increase of enzyme activities in the plasma are recognized as the result of the damage of the liver. A suitable means for evaluating the degree of damage induced by CCl4 or the degree of protection afforded by drugs is to study the plasma glutamic-pyruvic transaminase (p-GPT) activity.
Methods: The test compounds were dissolved or suspended in olive oil and administered orally at the dose of 250 mg/kg to the mice (Four-week-old male mice-dd strain). After 6 hours, CCl4 was administered orally (0.05 ml/kg as olive oil solution). Animals were killed 24 hours after CCl4 administration, and the liver was grossly observed. The plasma was obtained by centrifugation. Activities of p-GPT were determined by the method of Reitman and Frankel and expressed in Karmen units.
Score for liver damage index was as follows:
Each figure indicates average of 5 to 6 mice. Values of p-GPT over 1,000 Karmen unit regarded as 1,000 for calculation of average for convenience.

[7] = test system: bile flow and excretion of biliary salt; experiment: cholagogic action: bile flow and biliary salt excretion; type: in vivo, rat (SD-JCL strain); set-up: key to excretion of biliary salt: relative to 1 h pre-drug amount taken as 100
Method: The male rat (4 week-old, SD-JCL strain) was anesthetized with sodium pentobarbital (37.5 mg/kg, intraperitoneal injection). The abdominal cavity was opened through a midline incision. The common bile duct was catheterized with polyethylene tube o.d. 0.8 mm. The catheter was brought to the outside through the abdominal incision wound prior to closing. Bile was collected from the catheter continuously with time intervals of one hour. The quantity of bile produced in one hour was determined by weighing and that of biliary salt was determined by enzymatic method (Ikagaku Jikkenho Koza 1B, Biological Constituents II, edited by Tamino […]). The amount of biliary salts was represented as chloic acid equivalent. In the representation of the results, the quantities of bile and biliary salts produced in one hour prior to the administration of drug were taken as 100. […] As reference, anethol trithion was used.

[8] = 50 mg/kg oral everyday for 10 days
[9] = bromobenzene 0.75 ml/kg oral, 100 mg/kg oral 6 h before, 24 h after
[10] = 5 hours after administration, 200 mg/kg oral

SMILES: CC(C)OC(=O)C(C(=O)OC(C)C)=C1SC=CS1 [Compound 4, diisopropyl 1,3-dithiol-2-ylidene malonate]
- Triglyceride in the liver [1]: 4.4 ± 0.68 mg/g
- p-GPT [1]: 51 ± 15 Karmen unit
- Triglyceride ([2]; 1 hr after ethionine 200 mg/kg i.p.): 10.0 ± 1.15 mg/g-liver
- Triglyceride ([2]; 1 hr before ethionine 200 mg/kg i.p.): 9.1 ± 1.15 mg/g-liver
- Triglyceride ([2]; simultaneously with (0 hr) ethionine 200 mg/kg i.p.): 5.4 ± 0.61 mg/g-liver
- Total lipid [3, 8]: 78.6 ± 16.8 mg/g-liver
- Triglyceride [3, 8]: 37.6 ± 8.5 mg/g-liver
- Total lipid ([3]; 250 mg/kg, 10 days): 64.1 ± 10.2 mg/g-liver
- Triglyceride ([3]; 250 mg/kg, 10 days): 23.6 ± 7.0 mg/g-liver
- BSP [4]: 10 ± 2.0 mg/dL
- p-GPT [4]: 204 ± 44 Karmen unit
- indices of hepatotoxicity ([5]; BB, DMN and CF models together, Table 4): normalized the indices of hepatotoxicity
- BSP [5, 9]: 10.6 ± 4.5 mg/dL
- p-GPT [5, 9]: 23 ± 3.7 Karmen unit
- Liver Damage Index ([6]; 0 normal, 2 slightly recognized, 4 clearly observable, 6 heavy damage, average of 5 to 6 mice): 0.0
- p-GPT ([6]; values over 1,000 taken as 1,000): 36 Karmen units
- excretion of biliary salt ([7]; 200 mg/kg oral, 1 hour after treatment, before treatment = 100): 108 ± 15
- excretion of biliary salt ([7]; 200 mg/kg oral, 2 hours after treatment, before treatment = 100): 132 ± 25
- excretion of biliary salt ([7]; 200 mg/kg oral, 3 hours after treatment, before treatment = 100): 138 ± 27
- excretion of biliary salt ([7]; 200 mg/kg oral, 4 hours after treatment, before treatment = 100): 117 ± 27
- excretion of biliary salt ([7]; 200 mg/kg oral, 5 hours after treatment, before treatment = 100): 90 ± 21
- amount of total biliary salts excreted relative to control [7, 10]: 1.7 times
- quantity of total excreted bile relative to control [7, 10]: 1.2 times
- excretion of biliary salt ([7]; before treatment, 1 hour, taken as 100 (normalisation)): 100
